Legend:
PD-1/PD-L1 = PD-1/PD-L1 (Homo sapiens, UniProt Q9NZQ7); assay: PD-1/PD-L1 biochemical protein-protein interaction assay (ALPHA); format: binding; conditions: 0.3 nM His tagged PD-L1, 2.5 nM biotinylated Fc-PD-1, 60 minutes at 25° C., read-out: IC50 PD-L1-PD-1 Alpha IC50-mono PD-L1-fcP-D1
Summary of the method: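 His-PD-L1 ECD 0.3 nM + biotin-Fc-PD-1 2.5 nM (final), 25 mM Hepes pH 7.4, 150 mM NaCl, 3.4 mM EDTA; 60 min, 25° C; anti-His acceptor/streptavidin donor ALPHA beads; decreased signal = blocked binding; 4-parameter IC50.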

PD-1/PD-L1 interaction = molecular target: T1, PD-1/PD-L1 interaction (Homo sapiens, UniProt Q9NZQ7); assay: PD-1/PD-L1 NFAT reporter co-culture assay; format: cell-based; conditions: Jurkat PD-1 NFAT-luciferase cells co-cultured with aAPC-PD-L1 CHO cells, 6 hrs at 37° C.; read-out: EC50 NFAT Luciferase
T1 construct: expressed in transfected cells; host or cells: CHO cells (aAPC-PD-L1) co-cultured with Jurkat cells overexpressing PD-1 and an NFAT-luciferase reporter
T1 sequence (Q9NZQ7 19-290): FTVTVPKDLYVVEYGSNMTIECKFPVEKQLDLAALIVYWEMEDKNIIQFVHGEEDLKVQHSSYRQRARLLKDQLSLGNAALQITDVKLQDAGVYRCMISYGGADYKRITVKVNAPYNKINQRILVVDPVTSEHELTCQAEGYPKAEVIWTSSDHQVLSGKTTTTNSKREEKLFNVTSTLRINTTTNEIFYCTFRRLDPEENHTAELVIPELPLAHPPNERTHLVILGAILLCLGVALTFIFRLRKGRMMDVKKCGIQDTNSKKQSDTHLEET
Summary of the method: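 Compounds are scored by restoration of NFAT-luciferase signal in PD-1-expressing Jurkat cells cultured 6 h at 37 °C on CHO cells presenting anti-CD3 and PD-L1; EC50 values derive from four-parameter curve fitting.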

PD-L1 = molecular target: T2, PD-L1 (Homo sapiens, UniProt Q9NZQ7); assay: PD-L1/PD-L1 dimerization biochemical protein-protein interaction assay (ALPHA); format: binding; conditions: compound-induced PD-L1 dimerization, head prints '1 nM' (0.5 nM His-tagged PD-L1 and 0.5 nM FLAG-tagged PD-L1), read-out: AC50 PDL1 Dimer Alpha 1 nM
T2 construct: determine if they can specifically dimerize the extracellular domains of PD-L1
T2 sequence (Q9NZQ7 19-238 limits assumed): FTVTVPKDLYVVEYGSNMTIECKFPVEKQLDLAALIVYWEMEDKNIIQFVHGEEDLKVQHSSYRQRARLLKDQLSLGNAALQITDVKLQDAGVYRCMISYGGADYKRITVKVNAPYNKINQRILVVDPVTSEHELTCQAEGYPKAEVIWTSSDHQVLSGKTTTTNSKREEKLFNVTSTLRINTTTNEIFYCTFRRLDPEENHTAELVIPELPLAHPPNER
T2 sequence (Q9NZQ7 19-238 limits assumed): as above
Summary of the method: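 After 2 h at 25 °C with compound, His- and FLAG-tagged PD-L1 ECDs (each 0.5 nM final; 25 mM Hepes pH 7.4, 150 mM NaCl) were detected by sequential anti-His acceptor and anti-FLAG donor bead incubations. Dose-response curves fitted to four-parameter equation for AC50.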

Chain of PD-1/PD-L1 (Q9NZQ7 19-238 limits assumed): as above

Row | Compound | IC50 (PD-1/PD-L1) [nM] | EC50 (PD-1/PD-L1 interaction) [nM] | AC50 (PD-L1) [nM]
1 | COc1nc(-c2cccc(-c3cccc4c3CC[C@@H]4Oc3nc(OC)c(CNC[C@@H]4CCC(=O)N4)cc3Br)c2Br)ccc1CNC[C@@H]1CCC(=O)N1 [Example 698] | 0.704 | 152 | 111
2 | COc1nc(-c2cccc(-c3cccc4c3CC[C@@H]4Oc3nc(OCc4cncc(C#N)c4)c(CN[C@@](C)(CO)C(=O)O)cc3Br)c2Br)ccc1CNC[C@@H]1CCC(=O)N1 [Example 699] | 0.12 | 136 | 24.7
3 | COc1nc(-c2cccc(-c3cccc4c3CC[C@@H]4Oc3nc(OCc4cncc(C#N)c4)c(CN[C@@](C)(CO)C(=O)O)cc3Cl)c2Br)ccc1CNC[C@@H]1CCC(=O)N1 [Example 700] | 0.064 | 43 | 22.1
4 | COc1nc(-c2cccc(-c3cccc4c3CC[C@@H]4Oc3nc(OCc4cncc(C#N)c4)c(CNC(C)(C)C(=O)O)cc3Cl)c2Br)ccc1C1=NCCN1 [Example 701] | 0.818 | 3050 | 332
5 | COc1nc(-c2cccc(-c3cccc4c3CC[C@@H]4Oc3nc(OCc4cncc(C#N)c4)c(CN[C@@](C)(CO)C(=O)O)cc3Cl)c2Br)ccc1C1=NCCN1 [Example 702] | 0.316 | 1310 | 332
6 | COc1nc(O[C@H]2CCc3c(-c4cccc(-c5cnc(CN6CC(CO)C6)c(OC)n5)c4Cl)cccc32)c(Cl)cc1CN1CC[C@H](C(=O)O)C1 [Example 703] | 0.064 | 11 | 24.2
7 | COc1nc(-c2cccc(-c3cccc4c3CC[C@@H]4Oc3nc(OC)c(CN4CC[C@H](C(=O)O)C4)cc3Cl)c2Cl)ccc1CN1CC(CO)C1 [Example 704] | 0.064 | 11 | 66.8
8 | COc1nc(O[C@H]2CCc3c(-c4cccc(-c5cnc(CN6CC(C)(O)C6)c(OC)n5)c4Cl)cccc32)c(Cl)cc1CN1CC[C@H](C(=O)O)C1 [Example 705] | 0.064 | 20 | 60.6
9 | COc1nc(-c2cccc(-c3cccc4c3CC[C@@H]4Oc3nc(OC)c(CN4CC[C@H](C(=O)O)C4)cc3Cl)c2Cl)ccc1CN1CC(C)(O)C1 [Example 706] | 0.064 | 14 | 42.8
10 | COc1nc(O[C@H]2CCc3c(-c4cccc(-c5cnc(CN6CC(C)(CO)C6)c(OC)n5)c4Cl)cccc32)c(Cl)cc1CN1CC[C@H](C(=O)O)C1 [Example 707] | 0.064 | 31 | 39.3
11 | COc1nc(-c2cccc(-c3cccc4c3CC[C@@H]4Oc3nc(OC)c(CN4CC[C@H](C(=O)O)C4)cc3Cl)c2Cl)ccc1CN1CC(C)(CO)C1 [Example 708] | 0.064 | 34 | 38.6
12 | COc1nc(O[C@H]2CCc3c(-c4cccc(-c5cnc(CN6CC(O)C6)c(OC)n5)c4Cl)cccc32)c(Cl)cc1CN1CC[C@H](C(=O)O)C1 [Example 709] | 0.064 | 21 | 49.4
13 | COc1nc(-c2cccc(-c3cccc4c3CC[C@@H]4Oc3nc(OC)c(CN4CC[C@H](C(=O)O)C4)cc3Cl)c2Cl)ccc1CN1CC(O)C1 [Example 710] | 0.064 | 22 | 54.6
14 | COc1nc(O[C@H]2CCc3c(-c4cccc(-c5cnc(CNC[C@H]6C[C@H](O)C6)c(OC)n5)c4Cl)cccc32)c(Cl)cc1CN1CC[C@H](C(=O)O)C1 [Example 711] | 0.069 | 69 | 103

Second part, the compound after the results:

Row | IC50 (PD-1/PD-L1) [nM] | EC50 (PD-1/PD-L1 interaction) [nM] | AC50 (PD-L1) [nM] | Compound
15 | 0.064 | 12 | 33 | COc1nc(-c2cccc(-c3cccc4c3CC[C@@H]4Oc3nc(OC)c(CN4CC[C@H](C(=O)O)C4)cc3Cl)c2Cl)ccc1CNC[C@H]1C[C@H](O)C1 [Example 712]
16 | 0.064 | 25 | 69.4 | COc1nc(-c2cccc(-c3cccc4c3CC[C@@H]4Oc3nc(OC)c(CN4CC(C(=O)O)C4)cc3Cl)c2Cl)ccc1CN1CC2(CCC(=O)N2)C1 [Example 713]
17 | 0.064 | 26 | 66.3 | COc1nc(-c2cccc(-c3cccc4c3CC[C@@H]4Oc3nc(OC)c(CN4CC[C@H](C(=O)O)C4)cc3Cl)c2Cl)ccc1CN1CC2(CCC(=O)N2)C1 [Example 714]
18 | 0.064 | 35 | 7.89 | COc1nc(O[C@H]2CCc3c(-c4cccc(-c5ccc(CNC[C@@H]6CCC(=O)N6)cc5)c4Cl)cccc32)c(Cl)cc1CN1CCCC[C@H]1C(=O)O [Example 715]
19 | 0.403 | 343 | 15.1 | COc1nc(O[C@H]2CCc3c(-c4cccc(-c5ccc(CNC[C@@H]6CCC(=O)N6)cc5)c4Cl)cccc32)c(Cl)cc1CN[C@H]1CCC[C@H]1O [Example 716]
20 | 0.572 | 484 | 16.2 | COc1nc(O[C@H]2CCc3c(-c4cccc(-c5ccc(CNC[C@@H]6CCC(=O)N6)cc5)c4Cl)cccc32)c(Cl)cc1CN[C@@H]1CCC[C@@H]1O [Example 717]
21 | 0.242 | 704 | 70.4 | COc1nc(O[C@H]2CCc3c(-c4cccc(-c5ccc(CNC[C@@H]6CCC(=O)N6)cc5)c4Cl)cccc32)c(Cl)cc1CN1CC[C@H](O)C1 [Example 718]
22 | 0.064 | 110 | 32.7 | COc1nc(O[C@H]2CCc3c(-c4cccc(-c5ccc(CNC[C@@H]6CCC(=O)N6)cc5)c4Cl)cccc32)c(Cl)cc1CN1CCC[C@H](C(=O)O)C1 [Example 719]
23 | 0.262 | 558 | 94.9 | COc1nc(O[C@H]2CCc3c(-c4cccc(-c5ccc(CNC[C@@H]6CCC(=O)N6)cc5)c4Cl)cccc32)c(Cl)cc1CN1CC(O)C1 [Example 720]
24 | 0.064 | 14 | 19 | COc1nc(O[C@H]2CCc3c(-c4cccc(-c5ccc(CNC[C@@H]6CCC(=O)N6)cc5)c4Cl)cccc32)c(Cl)cc1CN1CC(C(=O)O)C1 [Example 721]
25 | 0.064 | 47 | 16 | COc1nc(O[C@H]2CCc3c(-c4cccc(-c5ccc(CNC[C@@H]6CCC(=O)N6)cc5)c4Cl)cccc32)c(Cl)cc1CN1CC[C@@H](C(=O)O)C1 [Example 722]
26 | 0.064 | 41 | 35.1 | COc1nc(O[C@H]2CCc3c(-c4cccc(-c5ccc(CNC[C@@H]6CCC(=O)N6)cc5)c4Cl)cccc32)c(Cl)cc1CN1CC[C@H](C(=O)O)C1 [Example 723]
27 | 0.064 | 120 | 21.2 | COc1nc(O[C@H]2CCc3c(-c4cccc(-c5ccc(CNC[C@@H]6CCC(=O)N6)cc5)c4Cl)cccc32)c(Cl)cc1CN1CCC[C@@H]1C(=O)O [Example 724]
28 | 0.064 | 88 | 14.3 | COc1nc(O[C@H]2CCc3c(-c4cccc(-c5ccc(CNC[C@@H]6CCC(=O)N6)cc5)c4Cl)cccc32)c(Cl)cc1CN1CCC[C@H]1C(=O)O [Example 725]
29 | 0.125 | 76 | 81.9 | COc1nc(-c2cccc(-c3cccc4c3CC[C@@H]4Oc3nc(OC)c(CN4CC5(CCC(=O)N5)C4)cc3Cl)c2Cl)ccc1CNC[C@@H]1CCC(=O)N1 [Example 726]
30 | 0.064 | 27 | 15.8 | COc1nc(-c2cccc(-c3cccc4c3CC[C@@H]4Oc3nc(OC)c(CN[C@@](C)(CO)C(=O)O)cc3Cl)c2Cl)ccc1CNC[C@@H]1CCC(=O)N1 [Example 727]
